Here are results for 4 molecules from ChEMBL document CHEMBL4673219, “Novel 5,6-disubstituted pyrrolo[2,3-d]pyrimidine derivatives as broad spectrum antiproliferative agents: Synthesis, cell based assays, kinase profile and molecular docking study” (Bioorg Med Chem, 2018).

The test system of test [1] is HCT-116. The test can be described thus: Antiproliferative activity against human HCT-116 cells assessed as cell growth inhibition measured after 72 hrs by MTT assay. It is filed as functional. For orientation: Formazan colour is commonly taken as a measure of viable cells.
Test [2] deals with MCF7. The test can be described thus: Antiproliferative activity against human MCF7 cells assessed as cell growth inhibition at 10 uM measured after 72 hrs by MTT assay relative to control. It is filed as functional. Particulars: read-out: GI.
Test [3] deals with SK-BR-3. Nature of the test: Antiproliferative activity against human SK-BR-3 cells assessed as cell growth inhibition at 10 uM measured after 72 hrs by MTT assay relative to control. The class given is functional. Particulars: read-out: GI.
Test [4] addresses High affinity nerve growth factor receptor (Homo sapiens, UniProt P04629). The test can be described thus: Inhibition of human Trk-A using myelin basic protein as substrate incubated for 40 mins in presence of [gamma33P]ATP by scintillation counting method.
Test [5] relates to MCF7. The test can be described thus: Antiproliferative activity against human MCF7 cells assessed as cell growth inhibition measured after 72 hrs by MTT assay. It is filed as functional.
Test [6] has as its system HCT-116. Nature of the test: Antiproliferative activity against human HCT-116 cells assessed as cell growth inhibition at 10 uM measured after 72 hrs by MTT assay relative to control. The class given is functional. The settings on record: read-out: GI.
In test [7] the test system is SK-BR-3. Nature of the test: Antiproliferative activity against human SK-BR-3 cells assessed as cell growth inhibition measured after 72 hrs by MTT assay. The class given is functional.
For test [8], the target named is Fibroblast growth factor receptor 1 (Homo sapiens) (UniProt P11362). Nature of the test: Inhibition of human FGFR1 at 10 uM using myelin basic protein as substrate incubated for 40 mins in presence of [gamma33P]ATP by scintillation counting method relative to control.
Test [9] has as its target Fibroblast growth factor receptor 2 (Homo sapiens) (UniProt P21802). Nature of the test: Inhibition of human FGFR2 at 10 uM using myelin basic protein as substrate incubated for 40 mins in presence of [gamma33P]ATP by scintillation counting method relative to control.

Sequence of Fibroblast growth factor receptor 2 (Homo sapiens) (P21802 22-821 limits assumed): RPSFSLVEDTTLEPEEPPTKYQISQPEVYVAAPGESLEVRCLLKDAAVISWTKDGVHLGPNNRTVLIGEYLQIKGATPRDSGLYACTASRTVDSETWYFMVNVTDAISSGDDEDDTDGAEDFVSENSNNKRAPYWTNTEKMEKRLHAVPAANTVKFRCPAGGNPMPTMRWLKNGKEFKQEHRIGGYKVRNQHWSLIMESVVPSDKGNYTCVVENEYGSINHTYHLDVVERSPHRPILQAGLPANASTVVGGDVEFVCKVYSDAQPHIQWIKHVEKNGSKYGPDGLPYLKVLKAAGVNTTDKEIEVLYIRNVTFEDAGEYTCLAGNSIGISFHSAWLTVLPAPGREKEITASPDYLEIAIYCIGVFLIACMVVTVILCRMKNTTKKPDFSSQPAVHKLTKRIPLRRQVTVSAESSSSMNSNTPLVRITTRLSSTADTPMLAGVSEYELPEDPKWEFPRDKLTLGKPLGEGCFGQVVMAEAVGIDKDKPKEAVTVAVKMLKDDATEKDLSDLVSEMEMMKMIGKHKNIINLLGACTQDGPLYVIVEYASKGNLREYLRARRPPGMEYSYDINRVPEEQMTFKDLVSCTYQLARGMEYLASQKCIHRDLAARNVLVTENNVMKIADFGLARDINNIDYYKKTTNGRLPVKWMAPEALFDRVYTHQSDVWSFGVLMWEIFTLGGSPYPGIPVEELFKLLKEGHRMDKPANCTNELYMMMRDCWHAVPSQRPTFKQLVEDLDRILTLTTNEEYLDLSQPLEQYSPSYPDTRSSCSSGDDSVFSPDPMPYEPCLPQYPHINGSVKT
Sequence of High affinity nerve growth factor receptor (P04629 whole entry): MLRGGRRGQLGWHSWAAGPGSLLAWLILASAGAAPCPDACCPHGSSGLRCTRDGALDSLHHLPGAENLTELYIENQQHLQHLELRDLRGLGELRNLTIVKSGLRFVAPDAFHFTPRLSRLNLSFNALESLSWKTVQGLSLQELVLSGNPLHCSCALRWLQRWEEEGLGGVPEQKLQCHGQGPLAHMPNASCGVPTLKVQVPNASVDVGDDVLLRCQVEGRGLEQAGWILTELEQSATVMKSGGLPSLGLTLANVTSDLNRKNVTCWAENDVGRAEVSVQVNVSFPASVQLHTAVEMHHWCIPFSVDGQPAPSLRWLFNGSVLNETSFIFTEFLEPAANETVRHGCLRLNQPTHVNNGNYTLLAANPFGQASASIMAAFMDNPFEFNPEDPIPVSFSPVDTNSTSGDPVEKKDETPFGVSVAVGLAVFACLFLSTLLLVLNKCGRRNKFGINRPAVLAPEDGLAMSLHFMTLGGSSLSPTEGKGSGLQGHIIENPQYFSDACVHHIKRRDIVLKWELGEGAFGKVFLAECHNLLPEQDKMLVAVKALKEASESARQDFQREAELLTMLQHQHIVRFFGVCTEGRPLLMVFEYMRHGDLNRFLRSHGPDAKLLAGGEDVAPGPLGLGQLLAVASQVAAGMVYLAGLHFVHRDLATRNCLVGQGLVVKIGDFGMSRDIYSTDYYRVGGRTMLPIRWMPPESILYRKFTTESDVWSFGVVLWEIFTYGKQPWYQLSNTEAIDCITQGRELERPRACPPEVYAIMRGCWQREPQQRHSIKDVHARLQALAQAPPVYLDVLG
Sequence of Fibroblast growth factor receptor 1 (Homo sapiens) (P11362 22-822 limits assumed): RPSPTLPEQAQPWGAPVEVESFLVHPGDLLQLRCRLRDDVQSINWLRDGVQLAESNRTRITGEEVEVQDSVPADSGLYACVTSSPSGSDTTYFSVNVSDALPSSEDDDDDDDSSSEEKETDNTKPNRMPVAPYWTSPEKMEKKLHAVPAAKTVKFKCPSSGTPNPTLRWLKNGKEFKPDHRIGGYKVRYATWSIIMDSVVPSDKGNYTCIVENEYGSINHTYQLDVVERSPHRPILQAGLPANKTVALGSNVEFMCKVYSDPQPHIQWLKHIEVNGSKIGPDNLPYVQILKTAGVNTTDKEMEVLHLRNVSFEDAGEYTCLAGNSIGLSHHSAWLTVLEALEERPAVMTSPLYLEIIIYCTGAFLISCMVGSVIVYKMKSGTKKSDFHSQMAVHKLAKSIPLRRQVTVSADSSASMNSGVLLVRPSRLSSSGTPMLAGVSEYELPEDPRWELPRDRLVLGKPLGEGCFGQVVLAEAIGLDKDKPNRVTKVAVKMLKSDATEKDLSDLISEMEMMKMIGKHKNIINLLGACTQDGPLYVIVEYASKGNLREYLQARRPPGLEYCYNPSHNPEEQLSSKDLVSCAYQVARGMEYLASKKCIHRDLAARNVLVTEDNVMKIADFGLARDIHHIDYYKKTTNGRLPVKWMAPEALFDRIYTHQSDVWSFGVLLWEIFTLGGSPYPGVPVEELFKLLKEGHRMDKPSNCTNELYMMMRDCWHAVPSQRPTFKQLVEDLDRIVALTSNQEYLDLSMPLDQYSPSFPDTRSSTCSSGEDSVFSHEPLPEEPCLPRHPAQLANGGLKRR

One may read the GI50 as the concentration giving 50% growth inhibition. As a reminder, the IC50 is the point on the concentration scale where inhibition reaches its midpoint. Broadly, the inhibition is the percentage by which the read-out fell short of the control. On to `CCCCCCCC(=O)Nc1nc2[nH]c(CN3CCN(Cc4ccccc4F)CC3)c(CN3CCN(Cc4ccccc4F)CC3)c2c(=O)[nH]1`, for which the GI50 in [1] worked out at 1.89 µM; in [5], 4.2 µM; in test [7], 3.73 µM. Moreover, the inhibition of growth at 10 µM in test [2] is 96.1%; in test [3], 93.4%; in [6], 97.3%. The IC50 in [4] stood at 3.15 µM. Besides, the figures for the inhibition in test [8] and in test [9] were 59.8% and 23%, respectively.

With `CCCCCCCC(=O)Nc1nc2[nH]cc(CN3CCN(Cc4cccc(F)c4)CC3)c2c(=O)[nH]1`, the GI50 in [1] is 5.34 µM; in test [5] it was 7.84 µM; in [7], 5.58 µM. Besides, the inhibition of growth at 10 µM turned out to be 85.7% in test [2], 91.2% in test [3] and 92.8% in test [6].

As for `CCCCCCCC(=O)Nc1nc2[nH]c(CN3CCN(Cc4ccc(F)cc4)CC3)c(CN3CCN(Cc4ccc(F)cc4)CC3)c2c(=O)[nH]1`, the 50% growth inhibitory concentration (GI50) in [1] amounted to 4.13 µM; in test [5], 1.75 µM; in [7], 3.6 µM. Further, the figures for the inhibition of growth at 10 µM in [2], in test [3] and in test [6] were 97.2%, 93.5% and 97.1%, respectively. Further, the IC50 in test [4] is 2.76 µM. The figures for the inhibition in test [8] and in test [9] were 50.5% and 14.7%, respectively.

Take `CCCCCCCC(=O)Nc1nc2[nH]c(CN3CCN(Cc4ccccc4)CC3)c(CN3CCN(Cc4ccccc4)CC3)c2c(=O)[nH]1`: the 50% growth inhibitory concentration (GI50) in test [1] amounted to 4.09 µM; in test [5] it was 2.78 µM; in [7], 3.64 µM. Also, the inhibition of growth at 10 µM in test [2] was 96.6%; in test [3] it was 93.4%; in test [6] it was 97%. In addition, in [4], the half-inhibitory concentration (IC50) came to 2.29 µM. Also, the values for the inhibition in [8] and in test [9] were 47.1% and 24%, respectively.
